From ChEMBL document CHEMBL1201862, “PubChem BioAssay data set” (2004)
Active and inactive are the calls of the source.

Experiments:
[1] = molecular target: T1, Bifunctional protein GlmU (Mycobacterium tuberculosis, UniProt P9WMN3); test: Inhibitors of Mycobacterial Glucosamine-1-phosphate acetyl transferase (GlmU). Secondary screen.; set-up: species or system Mycobacterium tuberculosis H37Rv
T1 sequence (P9WMN3 whole entry): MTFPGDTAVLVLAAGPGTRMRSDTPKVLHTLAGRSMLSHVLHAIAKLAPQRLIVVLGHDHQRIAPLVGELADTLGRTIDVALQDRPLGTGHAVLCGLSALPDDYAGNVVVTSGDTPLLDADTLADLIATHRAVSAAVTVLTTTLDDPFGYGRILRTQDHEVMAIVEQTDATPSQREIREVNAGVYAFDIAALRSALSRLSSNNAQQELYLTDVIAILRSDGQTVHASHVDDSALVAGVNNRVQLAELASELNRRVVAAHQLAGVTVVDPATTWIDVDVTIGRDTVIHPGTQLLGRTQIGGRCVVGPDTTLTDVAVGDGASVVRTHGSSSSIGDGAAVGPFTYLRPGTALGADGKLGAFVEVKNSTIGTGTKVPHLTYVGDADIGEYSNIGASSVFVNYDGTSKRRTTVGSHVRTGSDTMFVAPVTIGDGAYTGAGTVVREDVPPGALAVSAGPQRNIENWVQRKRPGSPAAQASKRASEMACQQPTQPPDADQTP

[2] = molecular target: Heat shock protein HSP 90-alpha (Homo sapiens, UniProt P07900); format: functional, organism-based
[3] = molecular target: T2, Delta-type opioid receptor (Homo sapiens, UniProt P41143); test: HTS Image-Based Screen for Antagonists of the DOR Receptor. [Related pubchem assays (depositor defined):AID1777, AID1785, AID1786, AID2133]; format: functional
[4] = molecular target: T2, Delta-type opioid receptor; test: HTS Image-Based Screen for Agonists of the DOR Receptor. [Related pubchem assays (depositor defined):AID1777, AID1786, AID2133]; format: functional
[5] = molecular target: T3, V-type proton ATPase subunit c' (Saccharomyces cerevisiae S288c, UniProt P32842); test: Dose Response of Small Molecules that Regulate V-ATPase Proton Transport in Yeast using pHLuorin, Cherry Pick 2.; format: functional; settings: read-out: EC50_MICROM
[6] = loss of viability in HepG2 cells – cell-based, CellTiter-Glo, cherry-picked, cytotoxicity control for Shn3 inhibitor project, dose response (AID 624134); format: functional
[7] = molecular target: T3, V-type proton ATPase subunit c'; test: Dose Response of Small Molecules that Regulate V-ATPase Proton Transport in Yeast using pHLuorin, Cherry Pick 1. [Related pubchem assays (depositor defined):AID504622]; format: functional
[8] = test system: Escherichia coli; test: microbe, parasite or virus in culture
[9] = molecular target: Mu-type opioid receptor (Homo sapiens, UniProt P35372); test: HTS Image-Based Screen for Agonists of the MOR Receptor. [Related pubchem assays (depositor defined):AID1777, AID1785, AID1786, AID2133]; format: functional;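 further: imaging of beta-arrestin GFP recruitment into spots after receptor activation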
[10] = cAMP pathway inhibition in counterscreen cell line – TR-FRET cAMP detection, counter-screen for MC4R biased antagonist project, dose response (AID 602305); format: functional, cell-based;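 further: U2OS cells stimulated with forskolin near its EC80 as the cAMP inducer; potency is for inhibition of forskolin-stimulated cAMP signaling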
[11] = molecular target: T4, Kappa-type opioid receptor (Homo sapiens, UniProt P41145); format: functional
[12] = non-specific 3'UTR reporter inhibition in Clone20-Shn3RL – cell-based, Renilla luciferase, cherry-picked, counter-screen for Shn3 inhibitor project, dose response (AID 624133); format: functional
[13] = molecular target: T5, Rac GTPase-activating protein 1 (Homo sapiens, UniProt Q9H0H5); test: blockers of MgcRacGAP-driven Rac1 GTP hydrolysis – biochemical, ADP Hunter fluorescence, primary and confirmatory, confirmation (AID 624330); format: functional
T5 sequence (Q9H0H5 whole entry): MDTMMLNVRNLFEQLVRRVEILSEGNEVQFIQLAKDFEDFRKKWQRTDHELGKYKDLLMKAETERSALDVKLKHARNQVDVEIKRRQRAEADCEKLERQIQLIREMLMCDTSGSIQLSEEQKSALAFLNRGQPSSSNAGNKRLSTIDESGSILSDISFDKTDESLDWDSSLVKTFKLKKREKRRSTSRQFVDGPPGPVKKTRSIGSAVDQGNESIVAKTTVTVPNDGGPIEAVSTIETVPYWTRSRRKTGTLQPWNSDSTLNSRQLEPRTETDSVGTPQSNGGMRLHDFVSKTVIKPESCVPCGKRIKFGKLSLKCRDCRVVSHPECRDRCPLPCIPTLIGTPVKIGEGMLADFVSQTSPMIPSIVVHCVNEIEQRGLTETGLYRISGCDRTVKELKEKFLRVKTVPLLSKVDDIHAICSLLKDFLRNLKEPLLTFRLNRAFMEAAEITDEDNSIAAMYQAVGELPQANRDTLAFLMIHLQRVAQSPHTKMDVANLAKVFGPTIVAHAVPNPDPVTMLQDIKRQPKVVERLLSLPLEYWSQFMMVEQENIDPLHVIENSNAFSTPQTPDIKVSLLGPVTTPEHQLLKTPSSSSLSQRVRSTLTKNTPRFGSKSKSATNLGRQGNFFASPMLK

[14] = test system: Escherichia coli; test: microbe, parasite or virus in culture; remark: listed apart in the source
[15] = viability loss in HeLa cells – cytotoxicity control for MgcRacGAP inhibitor project, dose response (AID 624300); format: functional
[16] = molecular target: T6, Mannose-6-phosphate isomerase (Homo sapiens, UniProt P34949); test: MPI enzyme activity inhibition – biochemical, fluorescence intensity, coupled assay, primary screen (AID 1209)
T6 sequence (P34949 whole entry): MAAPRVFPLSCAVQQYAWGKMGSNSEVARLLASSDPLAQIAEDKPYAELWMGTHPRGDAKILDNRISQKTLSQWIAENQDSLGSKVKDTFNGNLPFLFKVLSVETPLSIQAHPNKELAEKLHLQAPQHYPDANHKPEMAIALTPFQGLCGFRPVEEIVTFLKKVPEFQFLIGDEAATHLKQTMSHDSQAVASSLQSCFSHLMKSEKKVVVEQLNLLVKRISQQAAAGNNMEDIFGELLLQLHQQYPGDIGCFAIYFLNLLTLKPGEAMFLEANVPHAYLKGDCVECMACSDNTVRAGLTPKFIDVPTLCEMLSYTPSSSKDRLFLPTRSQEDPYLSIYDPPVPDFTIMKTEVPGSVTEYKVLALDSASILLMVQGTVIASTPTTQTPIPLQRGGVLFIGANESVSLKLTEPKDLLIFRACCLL

[17] = reduction of Shn3 3'UTR-driven luciferase in osteoblasts – cell-based, Clone20 osteoblasts, firefly luciferase, cherry-picked, dose response (AID 624132); format: functional;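 further: firefly luciferase luminescence from reporter carrying the Shn3 3'UTR in osteoblasts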
[18] = molecular target: Melanocortin receptor 4 (Homo sapiens, UniProt P32245); test: inhibitors of MC4R cAMP signaling – cell-based, TR-FRET, biased antagonists, dose response (AID 602298); format: functional;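 further: antagonist potency against agonist-stimulated cAMP production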
[19] = molecular target: G-protein coupled receptor 35 (Homo sapiens, UniProt Q9HC97); test: inhibition of zaprinast-stimulated GPR35 beta-arrestin translocation – imaging, U2OS, beta-arrestin-GFP, zaprinast agonist, primary screen (AID 2058); format: functional;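 further: antagonist potency meaning inhibition of agonist-induced arrestin redistribution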
[20] = molecular target: T4, Kappa-type opioid receptor; format: functional; remark: listed apart in the source
[21] = Luminescence Cell-Based Dose Retest to Confirm Inhibitors of Cancer Stem Cells. [Related pubchem assays (depositor defined):AID2717, AID2721]; format: functional; settings: Homo sapiens
[22] = molecular target: Ephrin type-A receptor 4 (Mus musculus, UniProt Q03137); test: EphA4 ligand-binding antagonists – biochemical, colorimetric, mouse EphA4, primary screen (AID 689); format: functional
[23] = molecular target: G-protein coupled receptor 55 (Homo sapiens, UniProt Q9Y2T6); test: inhibition of LPI-stimulated GPR55 beta-arrestin translocation – imaging, U2OS, beta-arrestin-GFP, LPI agonist, primary screen (AID 2013); format: functional;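 further: antagonist potency measured as reduced agonist-driven arrestin aggregation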
[24] = molecular target: Botulinum neurotoxin type A (Clostridium botulinum (strain Hall / ATCC 3502 / NCTC 13319 / Type A), UniProt P0DPI1); test: High-throughput multiplex microsphere dose response for inhibitors of toxin protease, specifically Botulinum neurotoxin light chain A protease, compounds from Cherry Pick 01.; format: functional; settings: read-out: EC50_MICROM
[25] = molecular target: Voltage-dependent T-type calcium channel subunit alpha-1H (Homo sapiens, UniProt O95180); format: functional;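 further: channel activity triggered by adding a high calcium stimulation buffer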
[26] = molecular target: T7, High affinity choline transporter 1 (Homo sapiens, UniProt Q9GZV3); test: human choline transporter potentiators, potency – cell-based, 10-point CRC, membrane potential dye, dose response (AID 602376); format: functional
T7 sequence (Q9GZV3 whole entry): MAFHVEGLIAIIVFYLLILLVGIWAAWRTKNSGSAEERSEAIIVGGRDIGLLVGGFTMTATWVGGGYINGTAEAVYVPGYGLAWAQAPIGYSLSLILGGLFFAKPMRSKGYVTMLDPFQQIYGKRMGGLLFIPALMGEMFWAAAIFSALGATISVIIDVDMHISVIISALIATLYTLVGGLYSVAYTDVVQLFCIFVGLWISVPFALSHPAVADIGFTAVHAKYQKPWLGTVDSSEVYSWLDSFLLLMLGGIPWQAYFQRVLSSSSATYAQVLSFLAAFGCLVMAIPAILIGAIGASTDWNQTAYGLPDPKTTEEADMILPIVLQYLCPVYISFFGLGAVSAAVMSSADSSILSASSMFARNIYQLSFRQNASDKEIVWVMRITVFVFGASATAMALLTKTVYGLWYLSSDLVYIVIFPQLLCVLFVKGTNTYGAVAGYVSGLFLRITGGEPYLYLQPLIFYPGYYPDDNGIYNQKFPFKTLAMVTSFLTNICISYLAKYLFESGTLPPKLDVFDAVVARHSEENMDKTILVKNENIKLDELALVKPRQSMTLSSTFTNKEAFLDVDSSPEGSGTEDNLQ

[27] = molecular target: ALK tyrosine kinase receptor (Homo sapiens, UniProt Q9UM73); format: functional;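 further: ALK tested as one member of a kinase panel screen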
[28] = molecular target: Cell division cycle 7-related protein kinase (Homo sapiens, UniProt O00311); format: functional;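 further: value obtained from a kinome-wide kinase panel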
[29] = molecular target: Sphingosine 1-phosphate receptor 3 (Homo sapiens, UniProt Q99500); test: Late-stage fluorescence-based dose-response cell-based counterscreen assay to identify agonists of the Sphingosine 1-Phosphate Receptor 4 (S1P4): Sphingosine 1-Phosphate Receptor 3 (S1P3) agonist assay Set 2.; format: functional
[30] = molecular target: Sphingosine 1-phosphate receptor 5 (Homo sapiens, UniProt Q9H228); test: activation of human S1P5 receptor – cell-based, fluorescence, set 2, counter-screen for S1P4 agonist project, late-stage follow-up (AID 504867); format: functional
[31] = molecular target: Sphingosine 1-phosphate receptor 2 (Homo sapiens, UniProt O95136); test: activation of human S1P2 receptor – cell-based, fluorescence, set 2, counter-screen for S1P4 agonist project, late-stage follow-up (AID 504873); format: functional
[32] = molecular target: Sphingosine 1-phosphate receptor 1 (Homo sapiens, UniProt P21453); test: Late-stage fluorescence-based dose-response cell-based counterscreen assay to identify agonists of the Sphingosine 1-Phosphate Receptor 4 (S1P4): Sphingosine 1-Phosphate Receptor 1 (S1P1) agonist assay Set 2.; format: functional
[33] = P. falciparum Dd2 growth inhibitors, dose response, SYBR Green, cherry-picked samples (AID 1159567); format: functional, cell-based
[34] = molecular target: Protein disulfide-isomerase (Homo sapiens, UniProt P07237); test: inhibition of PDI-driven insulin aggregation – biochemical, turbidity, absorbance, cherry-picked samples, dose response (AID 602350); format: functional
[35] = molecular target: Dual specificity protein kinase CLK4 (Homo sapiens, UniProt Q9HAZ1); format: functional
[36] = molecular target: Mitogen-activated protein kinase 8 (Homo sapiens, UniProt P45983); format: functional;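 further: value comes from one member of a kinome-wide kinase profiling panel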
[37] = molecular target: Serine/threonine-protein kinase pim-1 (Homo sapiens, UniProt P11309); format: functional
[38] = molecular target: Serine/threonine-protein kinase Chk1 (Homo sapiens, UniProt O14757); format: functional;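 further: measured as one member of a kinome-wide kinase profiling panel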
[39] = molecular target: cAMP-dependent protein kinase catalytic subunit PRKX (Homo sapiens, UniProt P51817); format: functional
[40] = molecular target: Inhibitor of nuclear factor kappa-B kinase subunit epsilon (Homo sapiens, UniProt Q14164); test: Navigating the Kinome. Panel member name: IKBKE; format: functional
[41] = molecular target: Wee1-like protein kinase (Homo sapiens, UniProt P30291); test: Navigating the Kinome. Panel member name: WEE1; format: functional

ALK tyrosine kinase receptor, sequence (Q9UM73 whole entry): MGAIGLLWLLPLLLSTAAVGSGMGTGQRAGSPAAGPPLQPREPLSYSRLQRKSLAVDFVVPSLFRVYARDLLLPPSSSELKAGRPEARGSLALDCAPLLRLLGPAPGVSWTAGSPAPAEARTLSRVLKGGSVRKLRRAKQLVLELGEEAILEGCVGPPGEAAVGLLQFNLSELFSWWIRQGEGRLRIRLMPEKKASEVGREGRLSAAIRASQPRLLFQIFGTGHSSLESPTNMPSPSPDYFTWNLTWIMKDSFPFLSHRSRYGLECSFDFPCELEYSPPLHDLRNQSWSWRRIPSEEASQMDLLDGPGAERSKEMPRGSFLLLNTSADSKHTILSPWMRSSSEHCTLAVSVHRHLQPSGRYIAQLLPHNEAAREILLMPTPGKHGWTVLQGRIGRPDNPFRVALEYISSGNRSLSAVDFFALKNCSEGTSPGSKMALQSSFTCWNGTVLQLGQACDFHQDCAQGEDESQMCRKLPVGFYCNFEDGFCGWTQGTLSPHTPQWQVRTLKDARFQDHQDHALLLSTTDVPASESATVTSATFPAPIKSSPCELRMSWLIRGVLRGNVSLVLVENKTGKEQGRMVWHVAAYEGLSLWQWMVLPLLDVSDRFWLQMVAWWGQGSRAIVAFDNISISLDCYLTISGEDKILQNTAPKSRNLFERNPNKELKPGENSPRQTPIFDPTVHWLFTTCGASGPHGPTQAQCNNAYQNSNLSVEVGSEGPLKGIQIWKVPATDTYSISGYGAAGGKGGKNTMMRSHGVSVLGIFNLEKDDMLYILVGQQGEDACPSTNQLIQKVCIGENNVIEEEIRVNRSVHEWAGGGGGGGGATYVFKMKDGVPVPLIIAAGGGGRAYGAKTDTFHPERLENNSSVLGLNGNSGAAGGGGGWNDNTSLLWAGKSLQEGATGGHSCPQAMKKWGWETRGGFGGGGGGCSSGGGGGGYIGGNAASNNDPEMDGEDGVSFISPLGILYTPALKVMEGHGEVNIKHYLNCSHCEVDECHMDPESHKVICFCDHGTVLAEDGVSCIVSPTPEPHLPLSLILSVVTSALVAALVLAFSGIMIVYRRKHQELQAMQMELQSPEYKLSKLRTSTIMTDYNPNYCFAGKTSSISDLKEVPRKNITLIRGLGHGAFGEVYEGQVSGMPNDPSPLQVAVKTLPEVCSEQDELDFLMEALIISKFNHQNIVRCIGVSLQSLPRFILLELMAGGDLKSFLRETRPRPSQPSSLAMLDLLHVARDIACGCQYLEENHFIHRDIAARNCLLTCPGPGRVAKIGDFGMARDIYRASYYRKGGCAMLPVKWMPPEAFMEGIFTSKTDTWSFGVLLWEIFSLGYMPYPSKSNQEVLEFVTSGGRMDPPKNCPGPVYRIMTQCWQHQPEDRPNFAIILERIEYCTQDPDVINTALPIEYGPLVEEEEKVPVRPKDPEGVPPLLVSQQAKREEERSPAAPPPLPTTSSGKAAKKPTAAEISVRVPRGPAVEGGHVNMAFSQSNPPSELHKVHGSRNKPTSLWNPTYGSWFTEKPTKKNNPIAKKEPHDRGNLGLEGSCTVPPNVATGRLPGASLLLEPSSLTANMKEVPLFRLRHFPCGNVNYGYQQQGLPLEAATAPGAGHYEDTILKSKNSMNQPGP
T4 sequence (P41145 whole entry): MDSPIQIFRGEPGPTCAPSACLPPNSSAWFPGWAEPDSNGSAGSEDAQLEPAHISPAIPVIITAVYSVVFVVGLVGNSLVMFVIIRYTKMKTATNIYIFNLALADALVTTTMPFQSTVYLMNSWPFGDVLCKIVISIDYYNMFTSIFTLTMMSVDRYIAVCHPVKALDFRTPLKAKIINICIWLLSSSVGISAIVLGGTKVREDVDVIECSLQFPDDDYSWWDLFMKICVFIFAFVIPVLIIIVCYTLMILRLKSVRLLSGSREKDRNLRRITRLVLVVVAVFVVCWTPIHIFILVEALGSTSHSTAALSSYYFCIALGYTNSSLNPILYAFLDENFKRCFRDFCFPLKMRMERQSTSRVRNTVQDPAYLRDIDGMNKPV
T2 sequence (P41143 whole entry): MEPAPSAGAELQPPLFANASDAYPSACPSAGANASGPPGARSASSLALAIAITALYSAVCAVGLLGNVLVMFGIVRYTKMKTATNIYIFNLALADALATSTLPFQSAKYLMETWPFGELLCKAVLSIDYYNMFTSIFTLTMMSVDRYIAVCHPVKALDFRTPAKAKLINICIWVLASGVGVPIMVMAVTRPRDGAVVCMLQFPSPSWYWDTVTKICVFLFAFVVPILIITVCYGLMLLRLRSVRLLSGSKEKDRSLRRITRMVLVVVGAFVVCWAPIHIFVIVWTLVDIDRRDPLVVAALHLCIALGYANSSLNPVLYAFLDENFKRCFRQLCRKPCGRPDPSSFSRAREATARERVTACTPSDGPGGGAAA
T3 sequence (P32842 whole entry): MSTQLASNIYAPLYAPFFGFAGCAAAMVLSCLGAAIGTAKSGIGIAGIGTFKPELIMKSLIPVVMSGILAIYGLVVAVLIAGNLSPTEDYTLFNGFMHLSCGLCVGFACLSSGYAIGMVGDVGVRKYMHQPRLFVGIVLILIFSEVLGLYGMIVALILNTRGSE
Inhibitor of nuclear factor kappa-B kinase subunit epsilon, sequence (Q14164 whole entry): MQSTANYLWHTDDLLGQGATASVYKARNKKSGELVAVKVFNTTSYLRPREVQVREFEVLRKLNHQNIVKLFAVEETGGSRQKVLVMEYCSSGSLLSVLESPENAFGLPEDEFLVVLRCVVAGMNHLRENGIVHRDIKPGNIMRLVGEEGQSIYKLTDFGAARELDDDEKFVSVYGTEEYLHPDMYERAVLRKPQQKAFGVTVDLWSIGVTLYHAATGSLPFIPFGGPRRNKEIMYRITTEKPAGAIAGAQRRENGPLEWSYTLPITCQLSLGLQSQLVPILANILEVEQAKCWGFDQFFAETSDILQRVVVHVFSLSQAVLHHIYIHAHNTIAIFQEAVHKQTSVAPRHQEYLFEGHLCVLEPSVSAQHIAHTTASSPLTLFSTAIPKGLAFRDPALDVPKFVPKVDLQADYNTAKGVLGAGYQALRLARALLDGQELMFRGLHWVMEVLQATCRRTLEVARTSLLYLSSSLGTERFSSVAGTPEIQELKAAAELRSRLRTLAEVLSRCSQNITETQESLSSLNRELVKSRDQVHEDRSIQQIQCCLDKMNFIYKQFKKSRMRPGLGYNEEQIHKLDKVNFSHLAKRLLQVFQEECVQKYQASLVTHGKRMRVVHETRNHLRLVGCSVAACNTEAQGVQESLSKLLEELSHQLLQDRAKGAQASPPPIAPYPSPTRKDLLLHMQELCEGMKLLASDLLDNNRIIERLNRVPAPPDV
Sphingosine 1-phosphate receptor 2, sequence (O95136 whole entry): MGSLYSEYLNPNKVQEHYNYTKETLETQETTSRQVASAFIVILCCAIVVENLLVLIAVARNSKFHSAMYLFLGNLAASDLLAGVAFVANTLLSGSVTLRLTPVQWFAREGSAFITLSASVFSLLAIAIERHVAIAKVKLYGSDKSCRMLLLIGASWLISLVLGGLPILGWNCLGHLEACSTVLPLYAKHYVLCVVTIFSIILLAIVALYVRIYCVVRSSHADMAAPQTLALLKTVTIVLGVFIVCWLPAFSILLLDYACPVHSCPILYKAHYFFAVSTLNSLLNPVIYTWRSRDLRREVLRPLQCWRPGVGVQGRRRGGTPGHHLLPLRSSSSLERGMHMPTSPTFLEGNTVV
G-protein coupled receptor 55, sequence (Q9Y2T6 whole entry): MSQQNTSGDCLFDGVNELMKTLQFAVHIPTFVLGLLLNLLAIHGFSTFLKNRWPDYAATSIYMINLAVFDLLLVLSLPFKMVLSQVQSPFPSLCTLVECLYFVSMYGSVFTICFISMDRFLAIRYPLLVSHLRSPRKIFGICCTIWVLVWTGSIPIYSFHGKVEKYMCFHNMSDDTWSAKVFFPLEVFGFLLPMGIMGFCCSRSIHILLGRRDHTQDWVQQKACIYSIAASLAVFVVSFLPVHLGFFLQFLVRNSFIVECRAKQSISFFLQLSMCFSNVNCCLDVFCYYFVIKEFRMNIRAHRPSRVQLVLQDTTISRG
Sphingosine 1-phosphate receptor 3, sequence (Q99500 whole entry): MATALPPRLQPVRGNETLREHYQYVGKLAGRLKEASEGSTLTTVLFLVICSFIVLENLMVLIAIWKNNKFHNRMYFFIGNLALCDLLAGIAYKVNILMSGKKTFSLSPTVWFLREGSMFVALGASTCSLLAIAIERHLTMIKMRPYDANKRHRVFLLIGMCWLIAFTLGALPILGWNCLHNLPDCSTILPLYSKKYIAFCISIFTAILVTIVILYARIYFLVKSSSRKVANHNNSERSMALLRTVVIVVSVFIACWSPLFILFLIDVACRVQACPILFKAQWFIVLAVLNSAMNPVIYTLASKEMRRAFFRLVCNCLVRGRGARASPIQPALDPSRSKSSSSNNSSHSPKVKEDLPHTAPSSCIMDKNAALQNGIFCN
Sphingosine 1-phosphate receptor 1, sequence (P21453 whole entry): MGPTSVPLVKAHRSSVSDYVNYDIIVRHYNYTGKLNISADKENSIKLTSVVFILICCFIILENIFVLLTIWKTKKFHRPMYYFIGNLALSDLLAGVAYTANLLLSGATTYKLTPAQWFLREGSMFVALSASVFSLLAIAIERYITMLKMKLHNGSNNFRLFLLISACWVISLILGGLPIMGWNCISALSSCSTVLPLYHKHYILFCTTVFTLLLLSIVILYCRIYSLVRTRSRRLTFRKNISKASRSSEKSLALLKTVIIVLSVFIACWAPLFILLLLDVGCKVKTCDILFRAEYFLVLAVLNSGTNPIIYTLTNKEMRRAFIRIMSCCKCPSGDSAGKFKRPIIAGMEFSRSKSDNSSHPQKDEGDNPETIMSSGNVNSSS
G-protein coupled receptor 35, sequence (Q9HC97 whole entry): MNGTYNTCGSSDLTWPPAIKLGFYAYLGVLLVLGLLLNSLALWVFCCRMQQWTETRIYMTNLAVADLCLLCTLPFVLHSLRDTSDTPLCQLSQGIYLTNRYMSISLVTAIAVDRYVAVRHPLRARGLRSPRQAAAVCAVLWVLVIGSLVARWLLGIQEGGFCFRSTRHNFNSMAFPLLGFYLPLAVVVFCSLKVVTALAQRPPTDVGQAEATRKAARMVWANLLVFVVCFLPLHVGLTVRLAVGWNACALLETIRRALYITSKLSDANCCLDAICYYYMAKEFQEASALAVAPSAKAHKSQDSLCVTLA

Cc1c(Cl)sn(-c2ccc(Cl)cc2)c1=O
IC50 [1]: 118 µM (active) | AC50 [2]: < 0.195 µM (active) | IC50 [3]: > 32 µM (inactive) | EC50 [4]: > 32 µM (inactive) | EC50 [5]: 1.4 µM (active) | AC50 [6]: 19.8 µM (active) | EC50 [7]: 5.19 µM (active) | AC50 [8]: 2.64 µM (active) | EC50 [9]: > 32 µM (inactive) | IC50 [10]: 19.6 µM (inactive) | EC50 [11]: 6.37 µM | AC50 [12]: 3.85 µM (active) | IC50 [13]: 49.6 µM (active) | AC50 [14]: 6.51 µM (active) | CC50 [15]: 9.78 µM (active) | IC50 [16]: > 50 µM (not active) | AC50 [17]: 0.728 µM (active) | IC50 [18]: 3.75 µM (active) | IC50 [19]: 2.72 µM (active) | EC50 [20]: > 35 µM

CCSc1nnc(-c2sc3nnc(-c4ccccc4)c(-c4ccccc4)c3c2N)o1
AC50 [21]: 0.286 µM (active) | IC50 [22]: 4.62 µM (active) | IC50 [23]: 2.44 µM (active) | EC50 [24]: 6.9 µM (active)

CCN(CC)CCn1c(NCc2nc3ccccc3n2Cc2ccccc2)nc2ccccc21
EC50 [25]: 4.94 µM (active) | EC50 [26]: 11.4 µM (active)

O=c1cc(-c2ccccc2)nc(NC2CCCCC2)[nH]1
Ki [27]: > 5.01 µM (inactive) | Ki [28]: 0.251 µM (active)

CC/N=C1/S/C(=C/c2cc(C)n(-c3ccccn3)c2C)C(=O)N1CC
EC50 [29]: > 25 µM (inactive) | EC50 [30]: 0.72 µM (active) | EC50 [31]: > 25 µM (inactive) | EC50 [32]: 0.103 µM (active)

C[C@H](CO)N1C[C@H](C)[C@@H](CN(C)S(=O)(=O)c2ccccc2)Oc2ccc(NC(=O)Cc3cn(C)c4ccccc34)cc2C1=O
AC50 [33]: 4.29 µM (active) | AC50 [34]: 0.125 µM (active)

COc1ccc(C(=O)Nc2ccccc2C(=O)O)cc1OC
Ki [35]: 1.58 µM (active) | Ki [36]: 2.51 µM (active) | Ki [37]: 5.01 µM (active) | Ki [38]: 1.58 µM (active)

O=C(O)C1CN(Cc2ccc(OCc3cccc(C(F)(F)F)c3)cc2F)C1
Ki [39]: 2.51 µM (active) | Ki [40]: 3.16 µM (active)

CCN1CCN(c2ccc(Nc3ncc(Cl)c(Nc4ccc(O)c(NC(C)=O)c4)n3)cc2)CC1
Ki [27]: 0.501 µM (active) | Ki [41]: 0.00794 µM (active)
